What was measured:
[1] = test system: C. freundii; assay: MIC of imipenem, ertapenem and meropenem; type: cell-based, Citrobacter freundii
[2] = test system: enterobacterial isolates; assay: MIC of imipenem, ertapenem and meropenem (groups of isolates, other species); type: cell-based, Enterobacteriaceae
[3] = test system: E. coli; assay: MIC of imipenem, ertapenem and meropenem; type: cell-based, Escherichia coli

Measured: MIC

C[C@@H](O)[C@H]1C(=O)N2C(C(=O)O)=C(SCCN=CN)C[C@H]12 [IPM, imipenem]
>32 µg/mL: [1]; C. freundii STE (NDM-1 + OXA-1 + OXA-9 + OXA-10 + CTX-M-15 + TEM-1) | [1]; C. freundii STE, NDM-1 + TEM-1 + CTX-M-15 + VIM-4 + OXA-1 + OXA-9 + OXA-10 + OXA-181 | [2]; S. marcescens 0911033, IMP-1 | [2]; S. marcescens 1008091, VIM-1+ CTX-M-15 | [2]; S. marcescens C7052, KPC-2 + TEM-1 + SHV-12 | [2]; S. marcescens D6403, KPC-2 + TEM-1 | [3]; E. coli 1008077, VIM-1+ TEM-1 + CTX-M-15
0.12 µg/mL: [3]; E. coli 1023, CTX-M-2 + TEM-1, non-carbapenemase producer | [3]; E. coli 1092 (OXA-1) | [3]; E. coli 1092, OXA-1, non-carbapenemase producer | [3]; E. coli 6252, (wild type), non-carbapenemase producer | [3]; E. coli E14 (CTX-M-14) | [3]; E. coli E14, CTX-M-14, non-carbapenemase producer | [3]; E. coli ECA (ACC-1) | [3]; E. coli ECA, ACC-1, non-carbapenemase producer | [3]; E. coli EVB (VEB-1) | [3]; E. coli EVB, VEB-1, non-carbapenemase producer | [3]; E. coli FOR (CTX-M-15) | [3]; E. coli FOR, CTX-M-15, non-carbapenemase producer | [3]; E. coli HB4 (OmpC-, OmpF-) | [3]; E. coli HB4, (OmpC-, OmpF-), non-carbapenemase producer, porin deficiency | [3]; E. coli MET (Chromosome-encoded extended-spectrum cephalosporinase) | [3]; E. coli MET, Chromosome-encoded extended-spectrum cephalosporinase, non-carbapenemase producer
0.19 µg/mL: [3]; E. coli 1008 (TEM-1 + CTX-M-1) | [3]; E. coli 1008, CTX-M-1 + TEM-1, non-carbapenemase producer | [3]; E. coli 1020, CTX-M-1 + TEM-1, non-carbapenemase producer | [3]; E. coli 1033, CTX-M-15, non-carbapenemase producer | [3]; E. coli 1034 (TEM-1 + SHV-38) | [3]; E. coli 1034, TEM-1 + SHV-38, non-carbapenemase producer | [3]; E. coli 1048 (TEM-1 + SHV-2a) | [3]; E. coli 1048, TEM-1 + SHV-2a, non-carbapenemase producer | [3]; E. coli 1082 (TEM-1) | [3]; E. coli 1082, TEM-1, non-carbapenemase producer | [3]; E. coli 6367 (wild type) | [3]; E. coli 6367, (wild type), non-carbapenemase producer | [3]; E. coli 10121 (CTX-M-2) | [3]; E. coli 10121, CTX-M-2, non-carbapenemase producer | [3]; E. coli 10122, CTX-M-1 + TEM-1, non-carbapenemase producer
4 µg/mL: [3]; E. coli ALL (NDM-1 + OXA-1 + OXA-2 + CTX-M-15 + TEM-1) | [3]; E. coli ALL, NDM-1 + TEM-1 + CTX-M-15 + OXA-1 + OXA-2 | [3]; E. coli COL (KPC-2) | [3]; E. coli COL, KPC-2 + TEM-1 + CTX-M-9
3 µg/mL: [3]; E. coli 0404018, VIM-1+ CMY-6 | [3]; E. coli GUE (NDM-1 + OXA-1 + TEM-1) | [3]; E. coli GUE, NDM-1 + TEM-1 + OXA-1 | [3]; E. coli HAN (OXA-48 + CTX-M-15) | [3]; E. coli HAN, OXA-48 + CTX-M-15
8 µg/mL: [3]; E. coli DIH (VIM-19) | [3]; E. coli DIH, VIM-19 | [3]; E. coli GEN (NDM-1 + OXA-1 + CMY-30 + TEM-1) | [3]; E. coli GEN, NDM-1 + TEM-1 + CMY-30 + OXA-1
2 µg/mL: [3]; E. coli LIL, KPC-2 + TEM-1 + OXA-9 | [3]; E. coli OM20, NDM-1 + TEM-1 + CTX-M-15
1.5 µg/mL: [3]; E. coli MAD (VIM-1 + CTX-M-3) | [3]; E. coli MAD, VIM-1+ CTX-M-3
16 µg/mL: [3]; E. coli IR5 (NDM-1 + CTX-M-15 + TEM-1) | [3]; E. coli IR5, NDM-1 + TEM-1 + CTX-M-15 | [3]; E. coli MAR (Overexpressed AmpC) | [3]; E. coli MAR, Overexpressed AmpC, non-carbapenemase producer
6 µg/mL: [3]; E. coli AUS (NDM-1 + CTX-M-15 + TEM-1) | [3]; E. coli AUS, NDM-1 + TEM-1 + CTX-M-15
0.38 µg/mL: [1]; C. freundii 1003, CTX-M-15 + TEM-1, non-carbapenemase producer | [1]; C. freundii 10107 (TEM-1 + SHV-12) | [1]; C. freundii 10107, TEM-1 + SHV-12, non-carbapenemase producer | [1]; C. freundii 10135 (CTX-M-15) | [1]; C. freundii 10135, CTX-M-15, non-carbapenemase producer | [1]; strain C. freundii 10107, TEM-1 + SHV-12, non-carbapenemase producer | [1]; strain C. freundii 10135, CTX-M-15, non-carbapenemase producer | [3]; E. coli BER (OXA-48 + CTX-M-15) | [3]; E. coli BER, OXA-48 + TEM-1 + CTX-M-15 | [3]; E. coli BON (OXA-48 + CTX-M-24 + TEM-1) | [3]; E. coli BON, OXA-48 + TEM-1 + CTX-M-24
1 µg/mL: [1]; C. freundii MAU (Overexpressed AmpC + TEM-3) | [1]; C. freundii MAU, Overexpressed AmpC + TEM-3, non-carbapenemase producer | [1]; strain C. freundii MAU, Overexpressed AmpC + TEM-3, non-carbapenemase producer | [3]; E. coli DIN, KPC-2 + TEM-1 + OXA-1
0.25 µg/mL: [1]; C. freundii 7767 (wild type) | [1]; C. freundii 7767, (wild type), non-carbapenemase producer | [3]; E. coli AME (OXA-48 + CTX-M-24) | [3]; E. coli AME, OXA-48 + CTX-M-24 | [3]; E. coli BOK (OXA-48 + CTX-M-15) | [3]; E. coli BOK, OXA-48 + CTX-M-15
0.5 µg/mL: [3]; E. coli 1108013, IMP-1 + TEM-1 | [3]; E. coli BOU (OXA-48 + CTX-M-15) | [3]; E. coli BOU, OXA-48 + CTX-M-15 | [3]; E. coli GOG (OXA-48 + CTX-M-24) | [3]; E. coli JAP (IMP-1) | [3]; E. coli JAP, IMP-1 | [3]; E. coli NAA (OXA-48 + CTX-M-24) | [3]; E. coli OM3, OXA-48 + TEM-1 + CTX-M-15

— patent publication US9328374B2, “Selective culture medium and method for detecting carbapenem-resistant bacteria in a test sample” (Institut National de la Sante et de la Recherche Medicale …, priority 2011, dated 2016)
